The subject of test [1] is AMO-1 human multiple myeloma tumor cell line. The test can be described thus: AMO-1 cell viability assay (CellTiter-Glo, 24 hours). Format: cell-based. The note with it: Homo sapiens, AMO1, 24 h, read-out: AMO-1 Viability IC50 (μM, 10% FBS), 10% FBS, 24 hours of compound treatment.
Procedure: Each concentration was tested in duplicate at least 3 independent times. A luminescent signal proportional to the number of viable cells following 24 hours of compound treatment was determined using the CellTiter-Glo® Luminescent Cell Viability Assay according to the manufacturer's recommendations (Promega Corp., Madison, WI). The plates were read in a Perkin Elmer Envision using a Luminescence protocol. To generate dose response curves the data is normalized to percent viability by setting the averages of the staurosporine (10 μM) and DMSO only control wells to 0% and 100% viability respectively.
The next test addresses GST-MCL-1 (Homo sapiens, UniProt Q07820). Briefly: TR-FRET MCL-1 binding assay (competition with probe F-Bak). In short, it runs like this: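 Test compounds, 11 three-fold dilutions from 25 μM final, incubated 2 hours at room temperature with GST-MCL-1, F-Bak probe and Tb-anti-GST antibody. TR-FRET read at 340/35 nm excitation with 520/525 and 495/510 nm emission. Run without human serum and with 10% HS.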
On the technique in general: Time-resolved FRET reads energy transfer from a long-lived donor to a nearby acceptor.

For test [2], the system named is NCI-H929 human multiple myeloma tumor cell line. Briefly: NCI-H929 cell viability assay (CellTiter-Glo, 24 hours). Conditions: Homo sapiens, NCI-H929, 24 h, read-out: H929 Viability IC50 (μM, 10% FBS), 10% FBS, 24 hours of compound treatment. Format: cell-based. A general note: Cellular ATP, detected with luciferase, serves as a proxy for viable cell number.
The mark [3] stands for this setting: MCL-1 Binding Ki (nM, 10% HS), in the presence of 10% HS (human serum).
The mark [4] stands for this setting: without HS, read-out: MCL-1 Binding Ki.

Like-named read-outs stand apart in the source and are kept apart here.

Chain of GST-MCL-1 (Q07820 whole entry): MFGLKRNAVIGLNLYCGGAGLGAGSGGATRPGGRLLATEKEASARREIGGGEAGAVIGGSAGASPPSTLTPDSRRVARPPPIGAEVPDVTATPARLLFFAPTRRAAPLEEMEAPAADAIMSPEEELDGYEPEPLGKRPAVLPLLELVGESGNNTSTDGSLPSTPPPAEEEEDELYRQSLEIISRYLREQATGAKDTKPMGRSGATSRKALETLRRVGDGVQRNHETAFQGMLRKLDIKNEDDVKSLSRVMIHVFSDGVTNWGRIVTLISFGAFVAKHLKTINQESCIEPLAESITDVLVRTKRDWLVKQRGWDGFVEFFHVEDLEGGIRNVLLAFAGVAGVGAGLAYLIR

Consider `Cc1c(Cl)c2c(Cl)c(C)c1-c1c(-c3ccc(F)cc3)sc3ncnc(c13)O[C@@H](C(=O)O)Cc1cc(ccc1OCc1ccnc(-c3ccc(OCC4COCCOCCOCCOCCO4)cc3)n1)OC[C@@H](CN1CCN(C)CC1)O2` (stereo partly drawn) [Example 107, (7R,16R)-19,23-dichloro-1-(4-fluorophenyl)-20,22-dimethyl-16-[(4-methylpiperazin-1-yl)methyl]-10-[(2-{4-[(1,4,7,10,13-pentaoxacyclopentadecan-2-yl)methoxy]phenyl}pyrimidin-4-yl)methoxy]-7,8,15,16-tetrahydro-18,21-etheno-13,9-(metheno)-6,14,17-trioxa-2-thia-3,5-diazacyclononadeca[1,2,3-cd]indene-7-carboxylic Acid], for which the IC50 (commonly the concentration that inhibits the measured activity by half) in test [1] came out at 0.00147 µM; in test [2], 0.000552 µM. Moreover, the Ki (as a rule, a dissociation constant, usually derived from enzyme kinetics or from competition with a known ligand) turned out to be 0.412 nM on GST-MCL-1 (setting [3]) and 0.026 nM on GST-MCL-1 (setting [4]).
The like results for `COCC(COC)Oc1ccc(-c2nccc(COc3ccc4cc3C[C@H](C(=O)O)Oc3ncnc5sc(-c6ccc(F)cc6)c(c35)-c3c(C)c(Cl)c(c(Cl)c3C)O[C@H](CN3CCN(C)CC3)CO4)n2)cc1` [Example 110, (7R,16R)-19,23-dichloro-10-[(2-{4-[(1,3-dimethoxypropan-2-yl)oxy]phenyl}pyrimidin-4-yl)methoxy]-1-(4-fluorophenyl)-20,22-dimethyl-16-[(4-methylpiperazin-1-yl)methyl]-7,8,15,16-tetrahydro-18,21-etheno-9,13-(metheno)-6,14,17-trioxa-2-thia-3,5-diazacyclononadeca[1,2,3-cd]indene-7-carboxylic Acid] were, in that order, 0.000306 µM, 0.00103 µM, 49.9 nM and 9.63 nM.
`CO[C@H]1O[C@H](COc2ccc(-c3nccc(COc4ccc5cc4C[C@H](C(=O)O)Oc4ncnc6sc(-c7ccc(F)cc7)c(c46)-c4ccc(c(Cl)c4C)O[C@H](CN4CCN(C)CC4)CO5)n3)cc2)[C@@H](OC)[C@H](OC)[C@@H]1OC` [Example 14, methyl 6-O-{4-[4-({[(7R,16R,21S)-7-carboxy-19-chloro-1-(4-fluorophenyl)-20-methyl-16-[(4-methylpiperazin-1-yl)methyl]-7,8,15,16-tetrahydro-18,21-etheno-13,9-(metheno)-6,14,17-trioxa-2-thia-3,5-diazacyclononadeca[1,2,3-cd]inden-10-yl]oxy}methyl)pyrimidin-2-yl]phenyl}-2,3,4-tri-O-methyl-a-D-mannopyranoside]: the IC50 was determined as 0.00154 µM in test [1] and 0.00258 µM in test [2]. In addition, the Ki on GST-MCL-1 (setting [3]) was 0.547 nM; on GST-MCL-1 (setting [4]), 0.124 nM.
For `COCCOCCOCCOCCOc1nccc(COc2ccc3cc2C[C@H](C(=O)O)Oc2ncnc4sc(-c5ccc(F)cc5)c(c24)-c2c(C)c(Cl)c(c(Cl)c2C)O[C@H](CN2CCN(C)CC2)CO3)n1` [Example 89, (7R,16R)-19,23-dichloro-1-(4-fluorophenyl)-20,22-dimethyl-16-[(4-methylpiperazin-1-yl)methyl]-10-({2-[(2,5,8,11-tetraoxatridecan-13-yl)oxy]pyrimidin-4-yl}methoxy)-7,8,15,16-tetrahydro-18,21-etheno-13,9-(metheno)-6,14,17-trioxa-2-thia-3,5-diazacyclononadeca[1,2,3-cd]indene-7-carboxylic Acid], the IC50 in test [1] came to 0.00262 µM; in test [2] it was 0.00299 µM. Besides, the Ki on GST-MCL-1 (setting [3]) was determined as 0.485 nM; on GST-MCL-1 (setting [4]), 0.067 nM.
In the case of `COCCOCCOCCOCCOCCO[C@H]1CC[C@@H](c2nccc(COc3ccc4cc3C[C@H](C(=O)O)Oc3ncnc5sc(-c6ccc(F)cc6)c(c35)-c3c(C)c(Cl)c(c(Cl)c3C)O[C@H](CN3CCN(C)CC3)CO4)n2)CC1` [Example 82, (7R,16R)-19,23-dichloro-1-(4-fluorophenyl)-20,22-dimethyl-16-[(4-methylpiperazin-1-yl)methyl]-10-[(2-{(1s,4s)-4-[(2,5,8,11,14-pentaoxahexadecan-16-yl)oxy]cyclohexyl}pyrimidin-4-yl)methoxy]-7,8,15,16-tetrahydro-18,21-etheno-13,9-(metheno)-6,14,17-trioxa-2-thia-3,5-diazacyclononadeca[1,2,3-cd]indene-7-carboxylic Acid], the IC50 was 0.000563 µM in test [1] and 0.00109 µM in test [2]. The Ki at GST-MCL-1 (setting [3]) was 0.135 nM; at GST-MCL-1 (setting [4]), 0.014 nM.
For `COCCOCCOCCOCCOCCOCCO[C@H]1CC[C@H](c2nccc(COc3ccc4cc3C[C@H](C(=O)O)Oc3ncnc5sc(-c6ccc(F)cc6)c(c35)-c3c(C)c(Cl)c(c(Cl)c3C)O[C@H](CN3CCN(C)CC3)CO4)n2)CC1` [Example 67, (7R,16R)-19,23-dichloro-1-(4-fluorophenyl)-10-[(2-{(1r,4r)-4-[(2,5,8,11,14,17-hexaoxanonadecan-19-yl)oxy]cyclohexyl}pyrimidin-4-yl)methoxy]-20,22-dimethyl-16-[(4-methylpiperazin-1-yl)methyl]-7,8,15,16-tetrahydro-18,21-etheno-13,9-(metheno)-6,14,17-trioxa-2-thia-3,5-diazacyclononadeca[1,2,3-cd]indene-7-carboxylic Acid], the IC50 in test [1] worked out at 0.0011 µM; in test [2] it was 0.00176 µM. For the same compound, the Ki on GST-MCL-1 (setting [3]) stood at 0.073 nM; at GST-MCL-1 (setting [4]), 0.016 nM.
As to `Cc1c(Cl)c2c(Cl)c(C)c1-c1c(-c3ccc(F)cc3)sc3ncnc(c13)O[C@@H](C(=O)O)Cc1cc(ccc1OCc1ccnc(-c3ccc(OC[C@H]4COCCN4C)cc3)n1)OC[C@@H](CN1CCN(C)CC1)O2` [Example 163, (7R,16R)-19,23-dichloro-1-(4-fluorophenyl)-20,22-dimethyl-10-{[2-(4-{[(3R)-4-methylmorpholin-3-yl]methoxy}phenyl)pyrimidin-4-yl]methoxy}-16-[(4-methylpiperazin-1-yl)methyl]-7,8,15,16-tetrahydro-18,21-etheno-9,13-(metheno)-6,14,17-trioxa-2-thia-3,5-diazacyclononadeca[1,2,3-cd]indene-7-carboxylic Acid], the IC50 was found to be 0.000399 µM in test [1] and 0.00134 µM in test [2]. Further, the Ki on GST-MCL-1 (setting [3]) worked out at 0.285 nM; at GST-MCL-1 (setting [4]) it was 0.013 nM.
The corresponding values for `COCCOCCOCCOC[C@@H]1CN(c2nccc(COc3ccc4cc3C[C@H](C(=O)O)Oc3ncnc5sc(-c6ccc(F)cc6)c(c35)-c3c(C)c(Cl)c(c(Cl)c3C)O[C@H](CN3CCN(C)CC3)CO4)n2)CCO1` [Example 68, (7R,16R)-19,23-dichloro-1-(4-fluorophenyl)-20,22-dimethyl-16-[(4-methylpiperazin-1-yl)methyl]-10-({2-[(2S)-2-(2,5,8,11-tetraoxadodecan-1-yl)morpholin-4-yl]pyrimidin-4-yl}methoxy)-7,8,15,16-tetrahydro-18,21-etheno-13,9-(metheno)-6,14,17-trioxa-2-thia-3,5-diazacyclononadeca[1,2,3-cd]indene-7-carboxylic Acid] are 0.000426 µM, 0.000938 µM, 0.209 nM and 0.031 nM.
The corresponding values for `Cc1c(Cl)c2c(Cl)c(C)c1-c1c(-c3ccc(F)cc3)sc3ncnc(c13)O[C@@H](C(=O)O)Cc1cc(ccc1OCc1ccnc(N3CCO[C@H](COCCOCC4COCCO4)C3)n1)OC[C@@H](CN1CCN(C)CC1)O2` (stereo partly drawn) [Example 103, (7R,16R)-19,23-dichloro-10-({2-[(2S)-2-({2-[(1,4-dioxan-2-yl)methoxy]ethoxy}methyl)morpholin-4-yl]pyrimidin-4-yl}methoxy)-1-(4-fluorophenyl)-20,22-dimethyl-16-[(4-methylpiperazin-1-yl)methyl]-7,8,15,16-tetrahydro-18,21-etheno-13,9-(metheno)-6,14,17-trioxa-2-thia-3,5-diazacyclononadeca[1,2,3-cd]indene-7-carboxylic Acid] are 0.000281 µM, 0.000578 µM, 0.172 nM and 0.033 nM.
As for `Cc1c2ccc(c1Cl)O[C@H](CN1CCN(C)CC1)COc1ccc(OCc3ccnc([C@H]4CCCN4C(=O)CCP(C)(C)=O)n3)c(c1)C[C@H](C(=O)O)Oc1ncnc3sc(-c4ccc(F)cc4)c-2c13` [Example 55, (7R,16R)-19-chloro-10-[(2-{(2R)-1-[3-(dimethylphosphoryl)propanoyl]pyrrolidin-2-yl}pyrimidin-4-yl)methoxy]-1-(4-fluorophenyl)-20-methyl-16-[(4-methylpiperazin-1-yl)methyl]-7,8,15,16-tetrahydro-18,21-etheno-13,9-(metheno)-6,14,17-trioxa-2-thia-3,5-diazacyclononadeca[1,2,3-cd]indene-7-carboxylic Acid], the IC50 in test [1] and in test [2] was over 1 µM throughout. Besides, the values for the Ki at GST-MCL-1 (setting [3]) and at GST-MCL-1 (setting [4]) were 92.6 nM and 38.2 nM, respectively.
As to `COCC(COC)Oc1nccc(COc2ccc3cc2C[C@H](C(=O)O)Oc2ncnc4sc(-c5ccc(F)cc5)c(c24)-c2c(C)c(Cl)c(c(Cl)c2C)O[C@H](CN2CCN(C)CC2)CO3)n1` [Example 141, (7R,16R)-19,23-dichloro-10-({2-[(1,3-dimethoxypropan-2-yl)oxy]pyrimidin-4-yl}methoxy)-1-(4-fluorophenyl)-20,22-dimethyl-16-[(4-methylpiperazin-1-yl)methyl]-7,8,15,16-tetrahydro-18,21-etheno-9,13-(metheno)-6,14,17-trioxa-2-thia-3,5-diazacyclononadeca[1,2,3-cd]indene-7-carboxylic Acid], the IC50 was determined as 0.000441 µM in test [1] and 0.000503 µM in test [2]. Moreover, the inhibition constant (Ki) came out at 0.363 nM at GST-MCL-1 (setting [3]) and 0.008 nM at GST-MCL-1 (setting [4]).

The record behind these values is US20250313572A1, “MACROCYCLIC MCL-1 INHIBITORS AND METHODS OF USE” (AbbVie Inc., priority 2017, published 2025).
